According to paper PMC13576449, “Small-Molecule Activators of PRMT1: Discovery, SAR Analyses, and Proapoptotic Effects in Pancreatic Cancer Cells” (Journal of Medicinal Chemistry, 2026):

Experiments:
Format in all cases: biochemical
[1] = molecular target: T1, FLAG-tagged PRMT4 (Mus musculus, UniProt Q9WVG6); experiment: Fluorescence-based in vitro PRMT assay (F-PRMT assay), PRMT4; details: for Experimental result (PRMT4): vs solvent control = 100%; for Efficacy ±∆% (PRMT4): mean % difference vs solvent control (100%)
T1 construct: Full-length FLAG-tagged PRMT protein; made in house; host or cells: Sf9 insect cells (baculovirus)
T1 sequence (Q9WVG6 1-608): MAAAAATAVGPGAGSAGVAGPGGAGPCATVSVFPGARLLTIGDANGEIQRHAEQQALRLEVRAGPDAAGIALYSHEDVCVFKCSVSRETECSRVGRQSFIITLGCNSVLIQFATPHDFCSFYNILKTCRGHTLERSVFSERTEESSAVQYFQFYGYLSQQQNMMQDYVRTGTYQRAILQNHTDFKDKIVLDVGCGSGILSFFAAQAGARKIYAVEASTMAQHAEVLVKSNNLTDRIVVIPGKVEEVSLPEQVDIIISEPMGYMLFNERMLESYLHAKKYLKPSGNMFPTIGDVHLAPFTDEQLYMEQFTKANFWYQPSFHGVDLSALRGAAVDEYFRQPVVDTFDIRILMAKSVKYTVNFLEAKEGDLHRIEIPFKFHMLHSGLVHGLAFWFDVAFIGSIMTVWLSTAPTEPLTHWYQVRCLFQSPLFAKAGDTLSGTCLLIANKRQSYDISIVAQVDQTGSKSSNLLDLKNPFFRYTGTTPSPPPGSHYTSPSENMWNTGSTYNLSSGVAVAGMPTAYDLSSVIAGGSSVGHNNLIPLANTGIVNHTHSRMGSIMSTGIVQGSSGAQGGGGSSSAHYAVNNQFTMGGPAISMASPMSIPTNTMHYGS
Source text: (§1) To evaluate the effects of the selected candidate molecules on the catalytic activity of type I enzymes, we employed a quantitative fluorescence-based in vitro PRMT activity (F-PRMT) assay using recombinant FLAG-tagged PRMT proteins expressed and affinity-purified from baculovirus-infected Sf9 cells (SI Figure S1, SI Figure S2A).
(§2) Human cell lines (PaTu8988T, PANC-1) were obtained from ATCC (American Type Culture Collection) and cultured in DMEM supplemented with 10% fetal calf serum (FCS, Gibco/BRL), 1% penicillin/streptomycin at 37 °C and 5% CO2. […] For PRMT1 inhibition, cells were treated with type I PRMT inhibitor MS023 hydrochloride (Biomol). For induction of genotoxic stress, cells were treated with gemcitabine (LC Laboratories). […] The following plasmids were used: pFASTBAC-FLAG-rat PRMT1, pFASTBAC-FLAG-mouse PRMT4, and pGEX-GAR. The complete ORFs of human PRMT3 and PRMT6 were inserted into the pFASTBAC HT-3xFLAG B vector via BamHI/HindIII and BamHI/XhoI sites, respectively.
(§3) For PRMT protein expression in insect cells, recombinant baculovirus (bacmid) was generated using the Bac-to-Bac baculovirus system (Invitrogen). Sf9 cells were transfected with bacmid DNA using X-tremeGENE HP DNA transfection reagent (Sigma-Aldrich) according to the manufacturer's instructions. After 3–5 days, supernatants were collected, filtered, and used to infect Sf9 cells to amplify the virus. After 2 rounds of virus amplification and estimation of the final P3 virus titer, the P3 virus (2–5 μL/10^6 cells) was applied for large-scale infection of 200 × 10^6 Sf9 cells in suspension culture at a density of 1 × 10^6 cells/mL. Cells were harvested 5–6 days post-infection by centrifugation at 500 g for 5 min at room temperature. Protein purification from baculovirus-infected Sf9 cells was performed as previously described. , Cells were lysed in BC buffer (20 mM HEPES pH 7.9, 250 mM NaCl, 10% (v/v) glycerin, 0.4 mM EDTA, 1 mM DTT) containing a protease inhibitor cocktail (Roche) by 3 freeze-thaw cycles. After centrifugation at 11,000 rpm (Sorval SS34 rotor) and 4 °C for 1 h, the supernatant (whole cell protein extract) was incubated with anti-FLAG M2 Affinity Gel (Cytiva) at 4 °C and under agitation for 4 h. Subsequently, beads were washed in BC buffer containing various NaCl concentrations (once in BC with 1 M NaCl, twice in BC with 500 mM NaCl, twice in BC with 250 mM NaCl and twice in BC with 100 mM NaCl). FLAG-tagged proteins were either maintained bead-bound as a 50% (v/v) slurry in BC buffer with 100 mM NaCl and stored at −80 °C or were eluted in the appropriate elution buffer (depending on the subsequent assay) containing 0.25 mg/mL 3xFLAG peptides (Sigma-Aldrich) at 4 °C for 30–45 min. To remove the FLAG-peptides from the eluate, dialysis was performed in elution buffer containing 10% (v/v) glycerol at 4 °C for 4–6 h using Slide-A-Lyzer Dialysis Devices (Thermo Fisher Scientific) according to the manufacturer’s recommendations.
(§4) In the first step, the fluorogenic substrate Nα-Benzoyl-L-arginine-7-amido-4-methylcoumarin (Bz-Arg-AMC, Sigma-Aldrich) undergoes methylation by PRMTs upon the addition of the cofactor SAM. In the second reaction step, trypsin cleaves the nonmethylated substrate, leading to the generation of the 7-amino-4-methylcoumarin product, which can be quantified by subsequent fluorescence measurement (excitation: 355 nm, emission: 460 nm). The first reaction was conducted with bead-bound PRMTs at a total volume of 100 μL. Each condition was performed as a technical triplicate to determine the mean and the standard deviation. […] For the negative controls, SAM was substituted with assay buffer. The incubation was continued at 37 °C and under agitation (1,000 rpm) for a duration of 2 h.

[2] = molecular target: T2, FLAG-tagged PRMT6 (Homo sapiens, UniProt Q96LA8); experiment: Fluorescence-based in vitro PRMT assay (F-PRMT assay), PRMT6; details: Table 1; 100 μM compound, 2 μM PRMT, vs solvent control = 100%, n = 3; racemates used
T2 construct: The complete ORFs of human PRMT3 and PRMT6 were inserted; made in house; host or cells: Sf9 insect cells (baculovirus)
T2 sequence (Q96LA8 whole entry): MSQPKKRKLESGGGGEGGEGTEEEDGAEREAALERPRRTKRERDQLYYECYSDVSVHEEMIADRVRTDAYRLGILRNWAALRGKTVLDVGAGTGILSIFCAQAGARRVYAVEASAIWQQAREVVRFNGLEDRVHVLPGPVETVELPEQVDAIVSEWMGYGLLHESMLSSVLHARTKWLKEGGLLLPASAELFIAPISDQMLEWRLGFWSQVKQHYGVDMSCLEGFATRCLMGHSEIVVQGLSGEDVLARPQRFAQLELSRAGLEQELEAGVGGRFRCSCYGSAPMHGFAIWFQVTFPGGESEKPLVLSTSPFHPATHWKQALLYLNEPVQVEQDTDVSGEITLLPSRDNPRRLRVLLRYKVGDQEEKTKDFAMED
Source text: as §1, §2, §3, §4

[3] = molecular target: T3, FLAG-tagged PRMT1 (Rattus norvegicus, UniProt Q63009); experiment: Fluorescence-based in vitro PRMT assay (F-PRMT assay), PRMT1; details: for Experimental result (PRMT1): vs solvent control = 100%
T3 construct: Full-length FLAG-tagged PRMT protein; made in house; host or cells: Sf9 insect cells (baculovirus)
T3 sequence (Q63009 whole entry): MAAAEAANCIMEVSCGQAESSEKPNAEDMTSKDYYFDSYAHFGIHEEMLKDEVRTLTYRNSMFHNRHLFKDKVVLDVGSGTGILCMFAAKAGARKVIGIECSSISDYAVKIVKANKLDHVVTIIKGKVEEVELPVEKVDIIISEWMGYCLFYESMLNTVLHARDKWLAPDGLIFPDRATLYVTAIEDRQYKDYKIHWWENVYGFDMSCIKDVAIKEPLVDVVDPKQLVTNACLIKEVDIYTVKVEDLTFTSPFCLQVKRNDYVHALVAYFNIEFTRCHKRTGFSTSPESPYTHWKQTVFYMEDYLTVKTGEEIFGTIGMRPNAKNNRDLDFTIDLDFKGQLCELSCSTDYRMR

[4] = molecular target: T4, FLAG-tagged PRMT3 (Homo sapiens, UniProt O60678); experiment: Fluorescence-based in vitro PRMT assay (F-PRMT assay), PRMT3; details: Table 1; 100 μM compound, 2 μM PRMT, vs solvent control = 100%, n = 3; racemates used
T4 construct: The complete ORFs of human PRMT3 and PRMT6 were inserted; made in house; host or cells: Sf9 insect cells (baculovirus)
T4 sequence (O60678 whole entry): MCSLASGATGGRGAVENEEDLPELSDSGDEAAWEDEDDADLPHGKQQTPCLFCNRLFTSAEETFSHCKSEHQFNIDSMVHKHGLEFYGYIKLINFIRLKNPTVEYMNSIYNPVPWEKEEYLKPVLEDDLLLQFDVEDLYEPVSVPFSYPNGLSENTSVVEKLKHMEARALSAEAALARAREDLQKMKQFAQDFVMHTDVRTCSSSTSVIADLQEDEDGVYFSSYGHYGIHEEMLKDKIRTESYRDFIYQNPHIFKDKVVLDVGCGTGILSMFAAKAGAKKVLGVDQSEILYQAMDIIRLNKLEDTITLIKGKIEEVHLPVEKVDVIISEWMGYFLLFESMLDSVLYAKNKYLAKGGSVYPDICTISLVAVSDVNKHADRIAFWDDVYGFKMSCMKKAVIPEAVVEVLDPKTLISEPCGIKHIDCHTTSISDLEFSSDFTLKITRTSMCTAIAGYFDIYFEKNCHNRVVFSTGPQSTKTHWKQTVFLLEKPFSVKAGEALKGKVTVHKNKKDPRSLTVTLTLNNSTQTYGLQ
Source text: as §1, §2, §3, §4

[5] = Table 1, 100 μM compound, 2 μM PRMT, n = 3, racemates used
[6] = Table S2, 100 µM compound, n=3, racemates used

| Structure (SMILES) | Experimental result (PRMT4) [1, 6] | further results |
| --- | --- | --- |
| CNC[C@@H](O)COc1cccc(OC)c1 (racemic) [Compound K001JS003] | – | Experimental result (PRMT4) [1, 5]: PRMT4 i; Experimental result (PRMT6) [2]: PRMT6 n.e. (Compounds, which did not significantly affect the catalytic activity (less than ±6% change or not significant p-value), are marked with [drawing 8] (no effect)); Experimental result (PRMT1) [3, 5]: PRMT1 n.e. (Compounds, which did not significantly affect the catalytic activity (less than ±6% change or not significant p-value), are marked with [drawing 8] (no effect)); Experimental result (PRMT3) [4]: PRMT3 n.e. (Compounds, which did not significantly affect the catalytic activity (less than ±6% change or not significant p-value), are marked with [drawing 8] (no effect)) |
| CNC(=O)Cn1cc(NC(=O)[C@@H]2CC[C@@H]2N)cn1 (racemic) [Compound K400JK012] | n.e. (did not significantly affect the catalytic activity of the intended PRMT (less than ±6% change or not significant p-value), are marked with n.e. (no effect)) | – |
| CNCCCc1ncc(-c2ccccc2Br)[nH]1 [Compound K001FT002] | n.e. (did not significantly affect the catalytic activity of the intended PRMT (less than ±6% change or not significant p-value), are marked with n.e. (no effect)) | – |
| N=C(N)NCCCc1ccccc1Br [Compound K001FT004] | n.e. (did not significantly affect the catalytic activity of the intended PRMT (less than ±6% change or not significant p-value), are marked with n.e. (no effect)) | – |
| NCCc1cn2cccc(OCc3ccccc3)c2n1 [Compound K001FT005] | n.e. (did not significantly affect the catalytic activity of the intended PRMT (less than ±6% change or not significant p-value), are marked with n.e. (no effect)) | – |
| Cn1ccnc1Cn1c(CCCN)nc2c1CCCC2 [Compound K001FT006] | n.e. (did not significantly affect the catalytic activity of the intended PRMT (less than ±6% change or not significant p-value), are marked with n.e. (no effect)) | – |
| COc1cccc(CNC(=O)NCc2nc3ccccc3s2)c1 [Compound K001FT008] | n.e. (did not significantly affect the catalytic activity of the intended PRMT (less than ±6% change or not significant p-value), are marked with n.e. (no effect)) | – |
| NCCCNCc1sc2ccccc2c1Cl [Compound K001FT010] | n.e. (did not significantly affect the catalytic activity of the intended PRMT (less than ±6% change or not significant p-value), are marked with n.e. (no effect)) | – |
| CNCCCNCc1ccccc1Br [Compound K001FT011] | n.e. (did not significantly affect the catalytic activity of the intended PRMT (less than ±6% change or not significant p-value), are marked with n.e. (no effect)) | – |
| COc1cccc(NC(=O)COC(=O)c2cc3ccccc3[nH]2)c1 [Compound K001JS005] | n.e. (did not significantly affect the catalytic activity of the intended PRMT (less than ±6% change or not significant p-value), are marked with n.e. (no effect)) | – |
| O=c1ccc([N+](=O)[O-])cn1Cc1nccn1Cc1ccccc1 [Compound K001JS009] | n.e. (did not significantly affect the catalytic activity of the intended PRMT (less than ±6% change or not significant p-value), are marked with n.e. (no effect)) | – |
| CS(=O)(=O)c1ccc(C(=O)NCc2nc3cc(F)ccc3[nH]2)cc1 [Compound K001JS011] | n.e. (did not significantly affect the catalytic activity of the intended PRMT (less than ±6% change or not significant p-value), are marked with n.e. (no effect)) | – |
| Cc1ccc([N+](=O)[O-])c(OCCC(=O)Nc2ccc(O)cc2C)c1 [Compound K001JS012] | n.e. (did not significantly affect the catalytic activity of the intended PRMT (less than ±6% change or not significant p-value), are marked with n.e. (no effect)) | – |
| COC(=O)COc1ccc(NC(=O)C23CC(CN2)C3)cc1 [Compound K400JK003] | n.e. (did not significantly affect the catalytic activity of the intended PRMT (less than ±6% change or not significant p-value), are marked with n.e. (no effect)) | – |
| CCS(=O)(=O)Nc1ccc(NC(=O)C23CC(CN2)C3)cc1 [Compound K400JK004] | – | Efficacy ±∆% (PRMT4) ([1]; Table S2, 100 µM compound, n=3): +8% |
| CC1(C(=O)Nc2ccc3nc(CN)[nH]c3c2)CCC1 [Compound K400JK011] | – | Efficacy ±∆% (PRMT4) ([1]; Table S2, 100 µM compound, n=3): -10% |
| N/C(Cn1ccn2nc(-c3cccs3)cc2c1=O)=N\O [Compound K400JK015] | n.e. (did not significantly affect the catalytic activity of the intended PRMT (less than ±6% change or not significant p-value), are marked with n.e. (no effect)) | – |
| CCN(CC)Cc1ccc(NS(=O)(=O)c2cc(C)cs2)cc1 [Compound K400JK016] | n.e. (did not significantly affect the catalytic activity of the intended PRMT (less than ±6% change or not significant p-value), are marked with n.e. (no effect)) | – |
| CO/C=C1/C(=O)NC(=O)c2ccccc21 [TR-02, (E/Z)-4-(Methoxymethylene)isoquinoline-1,3(2H,4H)-dione] | – | Experimental result (PRMT4) ([1]; Table S3, 100 µM compound, n≥3): n.e. (did not significantly affect the catalytic activity (less than ±6% change or not significant p-value), are marked with n.e. (no effect)); effect on PRMT1 activity (in words) ([3]; 100 μM compound): no significant effect; Experimental result (PRMT1) ([3]; Table S3, 100 µM compound, n≥3): n.e. (did not significantly affect the catalytic activity (less than ±6% change or not significant p-value), are marked with n.e. (no effect)) |
